Here are results for three compounds from ChEMBL document CHEMBL3301470, “MMV Malaria Box screening against Plasmodium falciparum Deoxyhypusine hydroxylase” (2015).

This assay concerns the target T1, Deoxyhypusine hydroxylase (Plasmodium falciparum (isolate 3D7)) (UniProt Q8I701).
T1 sequence (whole entry): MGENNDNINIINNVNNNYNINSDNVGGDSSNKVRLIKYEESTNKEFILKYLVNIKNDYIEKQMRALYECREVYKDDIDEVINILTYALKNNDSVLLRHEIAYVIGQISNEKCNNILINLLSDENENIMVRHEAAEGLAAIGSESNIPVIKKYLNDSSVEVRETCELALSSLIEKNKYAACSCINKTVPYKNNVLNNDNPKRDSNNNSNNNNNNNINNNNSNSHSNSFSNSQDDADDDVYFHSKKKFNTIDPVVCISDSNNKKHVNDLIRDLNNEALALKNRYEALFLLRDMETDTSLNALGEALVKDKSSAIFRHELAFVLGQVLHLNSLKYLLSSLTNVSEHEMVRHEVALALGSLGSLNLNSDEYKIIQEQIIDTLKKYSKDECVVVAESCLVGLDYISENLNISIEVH
The assay is described as follows: MMV: Deoxyhypusine hydroxylase activity assay. The settings on record: concentration not given here.
The term inhibition denotes the change of the read-out against control, counted positive when it falls. A high value points to a strong effect. `c1ccc(Cn2c(N=Nc3c(Nc4ccccc4)ccc4ccccc34)nc3ccccc32)cc1` returned an inhibition of 35.9%. As for `CCOc1ccc(-c2nonc2NC(=O)c2cccc(C)c2)cc1OCC`, the inhibition turned out to be 43.3%. The compound `COc1ccc(-c2nc3cc(Cc4ccc5[nH]c(-c6ccc(OC)cc6)nc5c4)ccc3[nH]2)cc1` displayed an inhibition of 38.8%.
